Test results as given in patent US20170129903A1, “COMPOUNDS COMPRISING 1,1a,2,5a-TETRAHYDROSPIRO[INDOLE-3,2a-PYRROLE]-2,5a-DIONE SYSTEM AS INHIBITORS P53-MDM2 PROTEIN-PROTEIN INTERACTION” (ADAMED SP. Z O.O., priority 2014, published 2017).
Blank lines part the entries; values can stand above or below the compound they belong to.

Tests used:
[1] = tested on: SJSA-1 osteosarcoma cell line; assay: MTT cell viability assay; format: cell-based; details: 72 h incubation, average of 2-5 experiments
How it was run: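 Cells exposed to serial compound dilutions for 72 h, then MTT (0.5 mg/ml final) added for 4 h; formazan dissolved in DMSO. IC50 from dose-response curves, 2-5 independent repeats.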

[2] = biological target: T1, p53-Mdm2 interaction (N-terminal domain of Mdm2 protein, amino acids 1-111) (Homo sapiens, UniProt Q00987); assay: Fluorescence polarization (FP) binding assay of p53-Mdm2 interaction; details: for Ki: FP assay, 130 nM Mdm2, FAM-labelled p53 peptide, Ki transformed from IC50 using Kenakin equation
T1 construct: N-terminal domain of Mdm2 protein (amino acids 1-111)
T1 sequence (Q00987 1-111): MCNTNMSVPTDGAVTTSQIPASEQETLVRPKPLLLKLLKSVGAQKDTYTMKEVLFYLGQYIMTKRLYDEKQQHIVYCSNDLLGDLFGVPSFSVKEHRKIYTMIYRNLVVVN
How it was run: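 N-terminal Mdm2 (aa 1-111) at 130 nM preincubated 15 min with compound (5% DMSO) in PBS, 0.1% CHAPS, 5 mM DTT, then […] FAM-labelled p53 peptide added. Polarization read after 90 min at room temperature (ex 470/em 520 nm). IC50 converted to Ki by Kenakin equation.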

SMILES: COc1ccc(Cl)cc1N1C(=O)c2n[nH]c(C(C)(C)C)c2C12C(=O)Nc1cc(Cl)ccc12 (stereo not drawn) [Compound 21, 3′-tert-butyl-6-chloro-5′-(5-chloro-2-methoxyphenyl)-1,2,5′,6′-tetrahydro-2′H-spiro[indole-3,4′-pyrrolo[3,4-c]pyrazole]-2,6′-dione]
- IC50 ([1]; Homo sapiens, SJSA-1, 72 h): 15.1 µM
- Ki [2]: 70 nM

SMILES: COc1ccc(-n2cc3c(c2C(C)C)C2(C(=O)Nc4cc(Cl)ccc42)N(c2cc(Cl)cnc2C)C3=O)c(OC)c1 (stereo not drawn) [Compound 104, 6-chloro-2′-(5-chloro-2-methylpyridin-3-yl)-5′-(2,4-dimethoxyphenyl)-6′-(propan-2-yl)-1,2,3′,5′-tetrahydro-2′H-spiro[indole-3,1′-pyrrolo[3,4-c]pyrrole]-2,3′-dione]
- IC50 ([1]; Homo sapiens, SJSA-1, 72 h): 0.16 µM
- Ki [2]: 3.1 nM

SMILES: COc1ccc(NC(C)=O)cc1-n1cc2c(c1C(C)C)C1(C(=O)Nc3cc(Cl)ccc31)N(c1cc(Cl)ccc1C)C2=O (stereo not drawn) [Compound 97, N-{3-[6-chloro-2′-(5-chloro-2-methylphenyl)-2,3′-dioxo-6′-(propan-2-yl)-1,2,3′,5′-tetrahydro-2′H-spiro[indole-3,1′-pyrrolo[3,4-c]pyrrole]-5′-yl]-4-methoxyphenyl}acetamide]
- IC50 ([1]; Homo sapiens, SJSA-1, 72 h): 0.3 µM
- Ki [2]: 3.4 nM

SMILES: CC(C)(C)c1[nH]nc2c1C1(C(=O)Nc3cc(Cl)ccc31)N(c1cccc(Cl)c1)C2=O (stereo not drawn) [Compound 20, 3′-tert-butyl-6-chloro-5′-(3-chlorophenyl)-1,2,5′,6′-tetrahydro-2′H-spiro[indole-3,4′-pyrrolo[3,4-c]pyrazole]-2,6′-dione]
- IC50 ([1]; Homo sapiens, SJSA-1, 72 h): 21.2 µM
- Ki [2]: 24 nM

SMILES: Cc1ccc(Cl)cc1N1C(=O)C(O)=C(c2ccccc2)C12C(=O)Nc1cc(Cl)ccc12 (stereo not drawn) [Compound 47, 6-chloro-1′-(5-chloro-2-methylphenyl)-4′-hydroxy-3′-phenyl-1,1′,2,5′-tetrahydrospiro[indole-3,2′-pyrrole]-2,5′-dione]
- IC50 ([1]; Homo sapiens, SJSA-1, 72 h): 44.5 µM
- Ki [2]: 29 nM

The next lines start with the values.

- IC50 ([1]; Homo sapiens, SJSA-1, 72 h): 0.78 µM
- Ki [2]: 4.2 nM
SMILES: CCOC(=O)c1ccc(Cl)cc1N1C(=O)c2cn(-c3ccccc3OC)c(C(C)C)c2C12C(=O)Nc1cc(Cl)ccc12 (stereo not drawn) [Compound 106, ethyl 4-chloro-2-[6-chloro-5′-(2-methoxyphenyl)-2,3′-dioxo-6′-(propan-2-yl)-1,2,3′,5′-tetrahydro-2′H-spiro[indole-3,1′-pyrrolo[3,4-c]pyrrole]-2′-yl]benzoate]

- IC50 ([1]; Homo sapiens, SJSA-1, 72 h): 0.53 µM
- Ki [2]: 4.7 nM
SMILES: COc1ccccc1-n1nc2c(c1C(C)C)C1(C(=O)Nc3cc(Cl)ccc31)N(c1cc(Cl)ccc1C)C2=O (stereo not drawn) [Compound 31, 6-chloro-5′-(5-chloro-2-methylphenyl)-2′-(2-methoxyphenyl)-3′-(propan-2-yl)-1,2,5′,6′-tetrahydro-2′H-spiro[indole-3,4′-pyrrolo[3,4-c]pyrazole]-2,6′-dione]

- IC50 [1]: 0.8 µM
- Ki [2]: 2.2 nM
- times more potent than the corresponding S/R (racemic) mixture ([2]; enantiopure S isomers vs racemic Compounds 71, 93 and 72, respectively): about 2 times
SMILES: COc1ccccc1-n1nc2c(c1C(C)C)[C@@]1(C(=O)Nc3cc(Cl)ccc31)N(c1cncc(Cl)c1)C2=O [Compound 81, (3S)-6-chloro-5′-(5-chloropyridin-3-yl)-2′-(2-methoxyphenyl)-3′-(propan-2-yl)-1,2,5′,6′-tetrahydro-2′H-spiro-[indole-3,4′-pyrrolo[3,4-c]pyrazole]-2,6′-dione]

- IC50 ([1]; Homo sapiens, SJSA-1, 72 h): 0.89 µM
- Ki [2]: 5.6 nM
SMILES: COc1ccccc1-n1nc2c(c1C(C)C)C1(C(=O)Nc3cc(Cl)ccc31)N(c1cncc(Cl)c1)C2=O (stereo not drawn) [Compound 72, 6-chloro-5′-(5-chloropyridin-3-yl)-2′-(2-methoxyphenyl)-3′-(propan-2-yl)-1,2,5′,6′-tetrahydro-2′H-spiro[indole-3,4′-pyrrolo [3,4-c]pyrazole]-2,6′-dione]

- IC50 ([1]; Homo sapiens, SJSA-1, 72 h): 0.07 µM
- Ki [2]: 1.3 nM
SMILES: COc1ccc(N)cc1-n1cc2c(c1C(C)C)[C@@]1(C(=O)Nc3cc(Cl)ccc31)N(c1cc(Cl)ccc1C)C2=O [Compound 109, (3S)-5′-(5-amino-2-methoxyphenyl)-6-chloro-2′-(5-chloro-2-methylphenyl)-6′-(propan-2-yl)-1,2,3′,5′-tetrahydro-2′H-spiro[indole-3,1′-pyrrolo[3,4-c]pyrrole]-2,3′-dione]
